According to US7427686B2, “(3R, 4R)-trans-3, 4-diarylchroman derivatives and a method for the prevention and/or treatment of estrogen dependent diseases” (Counsel of Scientific and Industrial Research, priority 2003, dated 2008):
Where two headings read alike, the source gives them in different places.

Columns and labels:
[1] = test system: PTH-induced resorption of 45Ca from chick fetal bones in culture; experiment: Antiosteoporosis (antiresorptive) activity in vitro, chick fetal bone assay; type: cell-based; details: for T/C ratio: 100 μM, inhibition in PTH-induced resorption of 45Ca
Procedure: Test solutions of the compounds of the present invention are prepared in appropriate solvents in concentration range of 5 millimolar to 400 millimolar, most preferably in concentrations of 20 millimolar. 5 μl of each concentration are used for evaluation of antiresorptive activity in vitro. In control experiments, 5 μl of appropriate solvent is used in lieu of test compound. Femur bones are isolated from chick embryos on day 11 post-ovulation. The adhering soft connective tissue is completely removed. Each femur bone is then placed in a drop of phosphate buffered saline (PBS) and is transferred to BGJb culture medium containing ^45CaCl2 and incubated for 2 h. Labeled femur bones are washed 2-3 times with PBS and transferred to BGJb medium containing parathyroid hormone and cultured for 96 h in the presence or absence of the compound of invention or the vehicle in BGJb medium. Contralateral femur of each fetus serves as corresponding control. Culture medium with the respective treatment in each well is changed after 48 h. On termination of the culture at 96 h, bones are transferred to 0.1 N HCl for 24 h. Radioactivity due to ^45Ca in the spent medium collected at 48 and 96 h of culture and HCl extract at 96 h of culture is quantified by Liquid Scintillation Spectrophotometer in 10 ml of the scintillation fluid. Bone resorbing activity is expressed as percentage of ^45Ca released into the culture medium and the effect of the compound of invention as percent of the corresponding contra-lateral control or T/C ratio as shown below: [formula] Appropriate solvents are selected from solvents like water, normal (physiological) saline, phosphate buffered saline, phosphate buffer, DMSO alone or in a suitable combinations thereof.

[2] = test system: immature ovariectomized rats; experiment: Estrogen antagonistic activity (EE induced uterine weight gain); type: in vivo, rat; details: 3 days
Procedure: Twenty-one-day-old immature female rats are bilaterally ovariectomized under light ether anaesthesia and after post-operative rest for 7 days, are randomized into different treatment groups. Each rat receives the compounds of the invention and 0.02 mg/kg dose of 17-alfa-ethynylestradiol in 10% ethanol-distilled water once daily for 3 consecutive days on days 28-30 of age. A separate group of animals-receiving only 17-alfa-ethynylestradiol (0.02 mg/kg) in 10% ethanol-distilled water for similar duration are used for comparison. At autopsy on day 31 of age, vaginal smear of each rat is taken and uterus is carefully excised, gently blotted, weighed and fixed for histology and histomorphometry using image analysis. Inhibition in 17-alfa-ethynylestradiol-induced premature opening of vagina, cornification of vaginal epithelium, increase in uterine fresh weight, total uterine and endometrial area and uterine luminal epithelial cell height are taken as parameters for evaluation of estrogen antagonistic activity.

estrogen receptors = biological target: T1, estrogen receptors (Rattus norvegicus, UniProt P06211); experiment: Relative binding affinity (RBA) to estrogen receptors, 3H-estradiol competition assay; details: rat uterine cytosol, 3H-E2, 18 hrs at 4° C.; relative to 17-beta-estradiol = 100
T1 construct: Aliquot of uterine cytosol (200 μl; 2 uteri per ml) prepared in TEA buffer; from tissue; host or cells: uterine cytosol of immature estradiol-primed 20-21 day old rats
T1 sequence (P06211 1-600): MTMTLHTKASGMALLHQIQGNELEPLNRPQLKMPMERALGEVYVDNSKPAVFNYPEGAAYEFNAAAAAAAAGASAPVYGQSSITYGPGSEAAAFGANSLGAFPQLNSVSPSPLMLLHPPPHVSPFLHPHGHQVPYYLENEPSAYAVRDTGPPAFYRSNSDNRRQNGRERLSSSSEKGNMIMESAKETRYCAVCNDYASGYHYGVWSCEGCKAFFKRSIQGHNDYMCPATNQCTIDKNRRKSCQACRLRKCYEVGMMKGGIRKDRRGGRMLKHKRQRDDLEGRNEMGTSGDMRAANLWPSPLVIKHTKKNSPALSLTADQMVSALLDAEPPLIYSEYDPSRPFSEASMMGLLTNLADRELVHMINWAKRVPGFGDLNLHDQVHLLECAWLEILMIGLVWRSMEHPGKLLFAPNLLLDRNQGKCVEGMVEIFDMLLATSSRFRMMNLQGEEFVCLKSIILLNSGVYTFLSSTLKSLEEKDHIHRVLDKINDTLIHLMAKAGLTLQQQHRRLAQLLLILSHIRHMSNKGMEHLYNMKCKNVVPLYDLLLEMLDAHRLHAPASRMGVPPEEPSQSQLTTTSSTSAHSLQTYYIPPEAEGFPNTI

adult female rats = experiment: Post-coital antifertility activity; type: in vivo, rat; details: for % Efficacy: oral
Procedure: Adult female rats are caged overnight with coeval males of proven fertility and their vaginal smears are checked on the following morning. The day of presence of spermatozoa in the vaginal smear is taken as day 1 of pregnancy. […] Animals of all the groups are autopsied on day 10 post-coitum and number and status of corpora lutea and implantation sites in each rat are recorded. The compounds of the present invention are considered active if there is complete absence of implantations in the uterus of all rats, in comparison to presence of normal implantations in the uterus of rats of vehicle control group.

[3] = test system: immature ovariectomized rats; experiment: Estrogen agonistic activity (uterine weight and uterine morphometry); type: in vivo, rat; details: for Percent increase in uterine weight (percent of OVX + vehicle treatment group): 3 days
Procedure: Twenty-one-day-old immature female rats are bilaterally ovariectomized under light ether anaesthesia and, after post-operative rest for 7 days, are randomized into different treatment groups. Each rat receives the compound of the invention once daily for 3 consecutive days on days 28-30 of age. A separate group of animals receiving only the vehicle for similar duration serves as control. At autopsy 24 h after the last treatment on day 31 of age, vaginal smear of each rat is taken and uterus is carefully excised, gently blotted, weighed and fixed for histology and histomorphometry using image analysis. Premature opening of vagina, cornification of vaginal epithelium, increase in uterine fresh weight, total uterine and endometrial area and uterine luminal epithelial cell height are taken as parameters for evaluation of estrogen agonistic activity in comparison to rats of vehicle control group.
For image analysis in estrogen agonistic activity evaluation studies, paraffin sections (6 μm thick) of the uterus stained with haematoxylin and eosin were analysed microscopically. To determine changes in uterine tissue components, areas of whole uterus and endometrium and the thickness of uterine epithelium were measured using a computer-image analysis system (BioVis, Expert Vision, India). Briefly, microscopic images of uterus acquired through a CCD camera were loaded in to the image analysis program and spatially calibrated against a stage micrometer image taken at the same magnification. Using thresholding and line tools, the regions for measurements were selected and the area (mm^2) of whole uterine transection excluding the luminal space, the area (mm^2) of the endometrium only, and the thickness (μm) of luminal epithelial lining were measured. Luminal epithelial thickness data was the Average of measurements made at 6 randomly selected sites are taken as parameters for evaluation.

MCF-7 cells = experiment: cells; type: cell-based, human
Procedure: The procedure is based on the following methods: New colorimetric assay for anticancer drug screening, Skehan et al., J Natn Cancer Inst, 82,1107, 1990 and Feasibility of a high-flux anticancer drug screen using a diverse panel of cultured human tumor cell lines 83,757, 1991.
A fully confluent flask of MCF-7 cells in trypsinized and 10^4 cells/well are plated in a 96 welled flat bottomed plate in 200 μl Minimum Essential Medium (MEM), pH 7.4 and allowed to attach for 24 h at 37° C. in a humidified CO2 incubator. Subsequently, the compound of invention dissolved in DMSO or ethanol is added at a specified concentration and further incubated for 48 h as before. The cells are then fixed in 50 μl cold 50% TCA and incubated for 1 h at 4° C. The supernatant is discarded and the plate is washed five times with deionized water and air dried. 100 μl of 0.4% (w/v) Sulforhodamine B (SRB) in 1% acetic acid is added to each well and incubated at room temperature for 30 minutes. Unbound SRB is removed by five washes with chilled 1% acetic acid and the plate is air dried. 200 μl of unbuffered 10 mM Tris base is added to solublize the bound stain for 5 minutes at room temperature and O.D. is read at 560 nm in a plate reader. The graph is plotted between O.D. and concentration and LC50 is calculated with respect to tamoxifen, which is used as a positive control.

[4] = 0.05 mg/kg daily with 0.02 mg/kg 17-alfa-ethynylestradiol
[5] = 0.025 mg/kg daily, days 1-5 post-coitum
[6] = 0.05 mg/kg daily, days 1-5 post-coitum
[7] = 0.1 mg/kg daily, days 1-7 post-coitum
[8] = cultured MCF-7 cells, 48 h, read-out: LC50 (the source's name)
[9] = 0.1 mg/kg daily, days 1-5 post-coitum

Row | SMILES | T/C ratio [1] | Percent inhibition in EE induced uterine weight gain [2, 4] | % Efficacy (adult female rats; [6]) | % Efficacy (adult female rats; 0.5 mg/kg, day 1 post-coitum) | % Efficacy (adult female rats; 1 mg/kg, day 1 post-coitum) | Endometrium Epithelial cell height ([3]; 0.05 mg/kg daily) | Endometrium Total area ([3]; 0.05 mg/kg daily) | Uterus Total area ([3]; 0.05 mg/kg daily) | Percent increase in uterine weight (percent of OVX + vehicle treatment group) ([3]; 0.05 mg/kg daily) | further results
1 | COc1ccc2c(c1)OC(C)(C)[C@@H](c1ccccc1)[C@@H]2c1ccc(OCC2CO2)cc1 (relative stereo) [Example number 10, 3R,4R-Trans-2,2-dimethyl-3-phenyl-4-(4-(2,3-epoxypropyloxy)-phenyl)-7-methoxychroman] | 0.79 |  |  |  |  |  |  |  |  | 
2 | CCCCNC[C@@H](O)COc1ccc([C@@H]2c3ccc(OC)cc3OC(C)(C)[C@H]2c2ccccc2)cc1 (relative stereo) [Example number 2, 3R,4R-trans-2,2-dimethyl-3-phenyl-4-(4-[{2R)-(3-n-butylamino-2-hydroxy}propyloxy]-phenyl)-7-methoxychroman] |  | 09% | 100% | 100% | 100% | 8.69 μm | 0.08 mm^2 | 0.175 mm^2 | 38% | RBA (estrogen receptors): 5.45; % Efficacy (adult female rats; [5]): 67%; % Efficacy (adult female rats; [7]): 100%; MED (prevention of pregnancy) (adult female rats; rats, administered during the pre-implantation period): 0.05 mg/kg; estrogenic activity at the MED ([3]; at the MED (0.05 mg/kg)): devoid of any estrogenic activity
3 | COc1ccc2c(c1)OC(C)(C)[C@@H](c1ccccc1)[C@@H]2c1ccc(OCC(O)CN2CCCC2)cc1 (relative stereo) [Example number 12, 3R,4R-Trans-2,2-dimethyl-3-phenyl-4-(4-(2-hydroxy-3-pyrrolidinopropyloxy)-phenyl)-7-methoxy chroman] | 0.77 |  | 50% |  |  |  |  |  |  | Percent inhibition in EE induced uterine weight gain ([2]; 0.1 mg/kg daily with 0.02 mg/kg 17-alfa-ethynylestradiol): 38%; CC50 (MCF-7 cells; [8]): 18.2 µM; % Efficacy (adult female rats; [7]): 100%; Endometrium Epithelial cell height ([3]; 0.1 mg/kg daily): 15.93 μm; Endometrium Total area ([3]; 0.1 mg/kg daily): 0.27 mm^2; Uterus Total area ([3]; 0.1 mg/kg daily): 0.56 mm^2; Percent increase in uterine weight (percent of OVX + vehicle treatment group) ([3]; 0.10 mg/kg daily): 120%
4 | COc1ccc2c(c1)OC(C)(C)[C@@H](c1ccccc1)[C@@H]2c1ccc(OCC(O)CN2CCCCC2)cc1 (relative stereo) [Example number 13, 3R,4R-Trans-2,2-dimethyl-3-phenyl-4-(4-(2-hydroxy-3-piperidinopropyloxy)-phenyl)-7-methoxychroman] |  |  |  |  |  |  |  |  |  | CC50 (MCF-7 cells; [8]): 17.8 µM
5 | COc1ccc2c(c1)OC(C)(C)[C@@H](c1ccccc1)[C@@H]2c1ccc(OC[C@@H](O)CN2CCCC2)cc1 (relative stereo) [Example number 8] |  | 49% | 100% | 100% | 100% | 17.25 μm | 0.35 mm^2 | 0.67 mm^2 | 53% | RBA (estrogen receptors): 6.6; % Efficacy (adult female rats; [9]): 100%
6 | O=C(c1ccc(OCCN2CCCCC2)cc1)c1c(-c2ccc(O)cc2)sc2cc(O)ccc12 [Raloxifene, reference compound] |  |  |  |  |  |  |  |  |  | T/C ([1]; comparator, concentration not given): 0.6
7 | CCCCNC[C@H](O)COc1ccc([C@@H]2c3ccc(OC)cc3OC(C)(C)[C@H]2c2ccccc2)cc1 (relative stereo) [Example number 7] | 0.41 | 31% | 100% | 50% | 100% | 6.17 μm | 0.13 mm^2 | 0.35 mm^2 | 11% | % Efficacy (adult female rats; [5]): Inactive; % Efficacy (adult female rats; [9]): 100%
8 | C#C[C@]1(O)CC[C@H]2[C@@H]3CCc4cc(O)ccc4[C@H]3CC[C@@]21C [17-alfa-Ethynylestradiol, reference compound] |  |  |  |  |  |  |  |  |  | Endometrium Epithelial cell height ([3]; 0.01 mg/kg daily): 33.65 μm; Endometrium Total area ([3]; 0.01 mg/kg daily): 0.57 mm^2; Uterus Total area ([3]; 0.01 mg/kg daily): 1.21 mm^2; Percent increase in uterine weight (percent of OVX + vehicle treatment group) ([3]; 0.01 mg/kg daily): 419%
9 | COc1ccc2c(c1)OC(C)(C)[C@@H](c1ccccc1)[C@@H]2c1ccc(OC[C@H]2CO2)cc1 (relative stereo) [Example number 1] | 0.59 |  |  |  |  |  |  |  |  | 
10 | CC/C(=C(\c1ccccc1)c1ccc(OCCN(C)C)cc1)c1ccccc1 [Tamoxifen, reference compound] |  |  |  |  |  |  |  |  |  | CC50 (MCF-7 cells; Homo sapiens, MCF7, 48 h, read-out: LC50): 14.2 µM
